Values joined by “and” are separate entries in the source; they are usually repeats but may differ in a detail not shown here. Equal entries are not always repeated.
Tests used:
[1] = tested on: LPS-induced acute respiratory distress syndrome; assay: Histopathological examination of lung, HE staining, LPS-induced ARDS rat model (Example 1); type: in vivo, SD rats; parameters: key to Pulmonary pathological score, Inflammation, Sited 1 / Pulmonary pathological score, Inflammation, Sited 2 / Pulmonary pathological score, Inflammation, Sited 3 / Pulmonary pathological score, Alveolar wall thickness, Sited 1 / Pulmonary pathological score, Alveolar wall thickness, Sited 2 / Pulmonary pathological score, Alveolar wall thickness, Sited 3: 0: NA; 1: Slight; 2: Moderate; 3: Severe; Pulmonary pathological score, Mean of total / Pulmonary pathological score, Inflammation, Mean / Pulmonary pathological score, Alveolar wall thickness, Mean / Pulmonary pathological score, Total: scale not given here
Method: Normal adult male SD rats were randomly grouped, 5 rats in each group. The animals were intraperitoneally injected and nebulized in the trachea with lipopolysaccharides (LPS) as a modeling reagent, as shown in Table 1:
The animals in groups G1 and G2 were intraperitoneally injected with lipopolysaccharides (0.8 mg/kg. body weight) according to their body weight, anesthetized by inhaling isoflurane after 16 h of the intraperitoneal injection, and nebulized with lipopolysaccharides (5 mg/kg. body weight) in the trachea.
The animals were administered for the first time within 1 h after the intratracheal nebulization with the modeling reagent (LPS), and the second time after 24 h.
After the bronchoalveolar lavage fluid was collected from all the animals, the chest cavity was opened to take the right lung. The lung was infused with formalin by using an injection needle, fixed in a 10% neutral buffer formalin solution, followed by paraffin embedding, slicing, section preparation, and HE staining for pathological morphological observation of lung tissues. Professional pathologists carried out pathological testing on the lung tissues.

rats with a lung injury [2] = assay: Survival test, LPS lung injury rats (Example 2); type: in vivo, Sprague-Dawley rats; conditions: test sample group, 0.75 mg/kg intravenous, 6 rats
Method: Animal grouping: 18 qualified male animals were randomly divided into a normal control group, a model control group, and a test sample group according to their body weight measured before grouping, with 6 animals per group.
(§1) D0: The animals in the normal control group were intraperitoneally injected with sodium chloride injection (1 ml/kg), while the animals in other groups were intraperitoneally injected with lipopolysaccharides (1 mg/kg, 1 ml/kg).
(§2) D1: After 16 h (+30 min) of intraperitoneal injection, the animals were anesthetized by inhaling isoflurane. The animals in the normal control group were nebulized with sodium chloride injection (1 mL/kg) in the trachea, while the animals in other groups were nebulized with lipopolysaccharides (5 mg/kg, 1 ml/kg) in the trachea.
D1: About 3 h to 5 h after the intratracheal nebulization of the modeling reagent (LPS), the animals were administrated with the test sample or solvent according to the following table 8: […]
After planned euthanasia, a rate of a quantity of live animals in each group to a total quantity of animals in each group in an experimental period was calculated.
Survival rate (%)=the quantity of live animals in a group/the total quantity of animals in the group×100%.

rats with a lung injury [3] = assay: Blood gas test, LPS lung injury rats (Example 2); type: in vivo, Sprague-Dawley rats
Method: as §1, §2
(§3) Administration frequency and duration: On D1, the animals were administered for the first time within 3 h after the intratracheal nebulization with the modeling reagent (LPS); and on D2, the animals were administered for the second time. The interval between the two administrations was about 24 h (+20 min).
Test time: the day after the second administration (D3)
Sample collection: The rats were anesthetized by intraperitoneal injection with chloral hydrate (350 mg/kg, 100 mg/mL), and their abdominal midline was longitudinally incised to separate the abdominal aorta. About 0.2 mL of arterial blood was collected with an arterial blood sampler. A syringe in the blood sampler was rubbed in the palm and turned upside down for 5 seconds to ensure that the blood was never returned to the blood sampler for blood mixing treatment.
Testing method: After the arterial blood was collected, a needle was gently inserted into a blood injection port of a test card, and the blood was gently pushed in and filled a sample filling tube. When the blood reached an adding position, the adding of the sample was stopped, a lid was closed, and the blood automatically entered the test tube. The test card was inserted into a blood gas analyzer to wait for test results.
Test indicators: PO2 (mmHg), PCO2 (mmHg), pH, and sO2%.

rats with a lung injury [4] = assay: BALF white blood cell count and classification (Example 2); type: in vivo, Sprague-Dawley rats; conditions: D3, 0.75 mg/kg i.v. twice, 6 rats, x ± SD
Method: as §1, §2, §3
Sample collection: After the animals were euthanatized, the skin and tissues of the neck and chest were incised to expose the trachea, bronchi, and lungs. The bronchi in the right lung were separated and ligated. A suture was threaded under the trachea, a ½ incision was made between cartilage rings of the trachea at an appropriate position under the thyroid cartilage, a trachea cannula was slowly inserted along the incision into the airway to a left bronchus, and the inserted cannula was fastened with the trachea by using the threaded suture at an appropriate position in a centripetal direction of the incision. 3 ml of PBS buffer was slowly injected with a syringe for bronchoalveolar lavage. The lavage was repeated 3 times, with each remaining for about 10 seconds. The lavage solution was collected into a centrifuge tube of appropriate capacity.
BALF treatment: The collected lavage solution was centrifuged at 4° C. and approximately 2000 rpm for 20 min. The supernatant was stored below −60° C. for later use. The precipitate was re-suspended with I mL of PBS buffer for count and classification of white blood cells. The supernatant after BALF centrifugation was managed as a sample by using a Watson LIMS7.5 system.
Classification and test of white blood cells: White blood cells in the re-suspended BALF were counted and classified by a fully automatic blood cell analyzer.

rats with a lung injury [5] = assay: Inflammatory factors in serum (Example 2); type: in vivo, Sprague-Dawley rats
Method: as §1, §2, §3
Collection of blood sample: About 1 mL of abdominal aortic blood of each animal was collected into a centrifuge tube containing a separation gel and a coagulant.
Treatment of blood sample: After collection, the blood sample was stored and transported at room temperature, and centrifuged within 2 hours under the conditions: 3000 g, room temperature, and 10 minutes. The serum after centrifugation was transferred to a new labeled centrifuge tube and divided into 2 tubes, which were temporarily stored below −60° C. At the end of the experiment, inflammatory factors (IL-1β, IL-6, IL-10, and TNF-α) in the serum were tested by a reagent kit. The blood sample was managed by the Watson LIMS7.5 system.

[6] = G2 compared to model control group G1
[7] = mean of 3 sites per animal G2-1 to G2-5, 1 mg/kg
[8] = single animals G2-1 to G2-5, 1 mg/kg, score 0-3
[9] = arterial blood, D3, 0.75 mg/kg i.v. twice, 6 rats, x ± SD
[10] = test sample group vs model control group
[11] = D3, 0.75 mg/kg i.v. twice, 6 rats, x ± SD

Substance: Annexin A5
- Effect on LPS-induced acute respiratory distress syndrome (pathological analysis) [1, 6]: significant improvement
- Lung injury in stained pathological sections (FIG. 4) [1, 6]: significantly improved
- Pulmonary pathological score, Mean of total ([1]; group G2, 5 rats, 1 mg/kg): 2.33
- Pulmonary pathological score, Alveolar wall thickness, Mean [1, 7]: 0.67 (3×) and 1.00 and 1.33
- Pulmonary pathological score, Inflammation, Mean [1, 7]: 1.67 and 2.00 and 1.33 (2×) and 1.00
- Pulmonary pathological score, Total ([1]; per animal G2-1 to G2-5, 1 mg/kg): 2.33 (2×) and 3.00 and 2.00 (2×)
- Pulmonary pathological score, Alveolar wall thickness, Sited 1 [1, 8]: 0 (2×) and 1 (2×) and 2
- Pulmonary pathological score, Alveolar wall thickness, Sited 2 [1, 8]: 1 (4×) and 2
- Pulmonary pathological score, Alveolar wall thickness, Sited 3 [1, 8]: 1 (3×) and 0 (2×)
- Pulmonary pathological score, Inflammation, Sited 1 [1, 8]: 2 (2×) and 1 (3×)
- Pulmonary pathological score, Inflammation, Sited 2 [1, 8]: 2 and 3 and 1 (3×)
- Pulmonary pathological score, Inflammation, Sited 3 [1, 8]: 1 (3×) and 2 (2×)
- Survival rate (rats with a lung injury [2]): 100%
- PCO2 (rats with a lung injury [3]; [9]): 46.63 ± 6.17 mmHg
- PO2 (rats with a lung injury [3]; [9]): 82.5 ± 8.7 mmHg
- pH (rats with a lung injury [3]; [9]): 7.372 ± 0.049
- sO2 % (rats with a lung injury [3]; [9]): 95.5 ± 1.0 %
- Change in the pH indicator (rats with a lung injury [3]; test sample group): no significant change
- Change of PO2, sO2% and PCO2 after administration (rats with a lung injury [3]; [10]): all increased with statistical differences
- Lymphocytes in BALF (rats with a lung injury [4]): 0.58 ± 0.22 ×10^9 cells/L
- Monocytes in BALF (rats with a lung injury [4]): 0.38 ± 0.47 ×10^9 cells/L
- Neutrophils in BALF (rats with a lung injury [4]): 2.54 ± 2.07 ×10^9 cells/L
- White blood cell in BALF (rats with a lung injury [4]): 3.63 ± 2.05 ×10^9 cells/L
- IL-1β in serum (rats with a lung injury [5]; [11]): 15.41 ± 25.29 pg/mL
- IL-6 in serum (rats with a lung injury [5]; [11]): 0.00 ± 0.00 pg/mL
- IL-10 in serum (rats with a lung injury [5]; [11]): 18.35 ± 9.84 pg/mL
- TNF-α in serum (rats with a lung injury [5]; [11]): 0.00 ± 0.00 pg/mL
- Change of inflammatory factors in the serum (rats with a lung injury [5]; [10]): significantly decreased to similar levels as the normal control group

— patent US20240189388A1, “MEDICATION FOR TREATING LUNG INJURY” (SHANGHAI SEME CELL TECHNOLOGY CO., LTD., priority 2021, published 2024)
